# From article PMC13070491, “Single-nucleus transcriptomics, pharmacokinetics, and pharmacodynamics of CDK4/6 and mTOR inhibition in a Phase 0/1 trial of recurrent high-grade glioma” (Neuro-Oncology, 2025)
# Several values for one entry are separate records, joined by “and”; a condition that tells them apart may be missing. Equal values may be shown once.
# Key:
# [1] = Plasma pharmacokinetic parameters (LC-MS/MS); details: for AUC(0-t): AUClast; for AUC(0-t) / Cmax / Tmax / AUClast / CL/F / T1/2: total everolimus plasma; for half-life: T1/2, total everolimus plasma
# Experimental: Pharmacokinetic evaluation was conducted as previously described[8] using a validated liquid chromatography with tandem mass spectrometry (LC-MS/MS) method.[16] […] CSF samples were intraoperatively collected.
# [2] = test system: mTOR; details: threshold basis for Phase 1 expansion; no reference given; read-out: biochemical IC50; cited from earlier work
# [3] = Adverse events related to study treatment (CTCAE); assay type: in vivo, human; details: Dose Level 0: ribociclib 400mg + everolimus 2.5mg QD 5 days; CTCAE grade 1
# Experimental: Eligibility was determined based on previous clinical records, panel DNA sequencing, and IHC of archival tissue from a previous surgery (Figure 1, Supplementary Figure S2A).
# [4] = human, plasma, oral, 2.5 mg, mean
# [5] = human, plasma, oral, 2.5 mg, median
# [6] = human, plasma, oral, 5 mg, mean
# [7] = human, plasma, oral, 5 mg, median
# [8] = human, plasma, oral, 10 mg, mean
# [9] = human, plasma, oral, 10 mg, median
# [10] = human, plasma, oral, 50 mg, mean
# [11] = human, plasma, oral, 50 mg, median
# [12] = human, plasma, oral, 60 mg, mean
# [13] = human, plasma, oral, 60 mg, median
# [14] = human, plasma, oral, 70 mg, individual patients
# [15] = human, plasma, oral, 70 mg, mean
# [16] = human, plasma, oral, 70 mg, median
# [17] = dose 2.5 mg, individual patients
# [18] = dose 10 mg, individual patients
# [19] = dose 50 mg, individual patients, listed as everolimus
# [20] = dose 60 mg, individual patients
# [21] = dose 70 mg, individual patients
smiles,measurement,setting,value
"CO[C@H]1C[C@@H]2CC[C@@H](C)[C@@](O)(O2)C(=O)C(=O)N2CCCC[C@H]2C(=O)O[C@H]([C@H](C)C[C@@H]2CC[C@@H](OCCO)[C@H](OC)C2)CC(=O)[C@H](C)/C=C(\C)[C@@H](O)[C@@H](OC)C(=O)[C@H](C)C[C@H](C)/C=C/C=C/C=C/1C [Everolimus, everolimus]",AUC(0-t),[1]; [4],0.31 µM·h
same,AUC(0-t),[1]; [5],0.23 µM·h
same,Cmax,"[1]; human, plasma, oral, 2.5 mg, Cmax, mean",33.7 nM
same,half-life,[1]; [4],21.6 h
same,half-life,[1]; [5],17.2 h
same,Tmax,"[1]; human, plasma, oral, 2.5 mg, Tmax, mean",1.86 h
same,AUC(0-t),"[1]; human, plasma, oral, 5 mg, individual patients",0.55 µM·h
same,AUC(0-t),[1]; [6],0.43 µM·h
same,AUC(0-t),[1]; [7],0.5 µM·h
same,Cmax,"[1]; human, plasma, oral, 5 mg, Cmax, mean",34.1 nM
same,half-life,[1]; [6],19.9 h
same,half-life,[1]; [7],18.8 h
same,Tmax,"[1]; human, plasma, oral, 5 mg, Tmax, mean",2.69 h
same,Tmax,"[1]; human, plasma, oral, 5 mg, Tmax, median",2.03 h
same,AUC(0-t),[1]; [8],0.9 µM·h
same,AUC(0-t),[1]; [9],0.82 µM·h
same,Cmax,"[1]; human, plasma, oral, 10 mg, Cmax, individual patients",80 nM
same,half-life,"[1]; human, plasma, oral, 10 mg, individual patients",22.1 h
same,half-life,[1]; [8],21.8 h
same,half-life,[1]; [9],21.8 h
same,Tmax,"[1]; human, plasma, oral, 10 mg, Tmax, mean",3.23 h
same,Tmax,"[1]; human, plasma, oral, 10 mg, Tmax, median",3.92 h
same,AUC(0-t),"[1]; human, plasma, oral, 50 mg, individual patients",1.35 µM·h
same,AUC(0-t),[1]; [10],1.59 µM·h
same,AUC(0-t),[1]; [11],1.61 µM·h
same,Cmax,"[1]; human, plasma, oral, 50 mg, Cmax, individual patients",110 nM
same,Cmax,"[1]; human, plasma, oral, 50 mg, Cmax, mean",140 nM
same,Cmax,"[1]; human, plasma, oral, 50 mg, Cmax, median",130 nM
same,half-life,[1]; [10],29.3 h
same,half-life,[1]; [11],21.3 h
same,Tmax,"[1]; human, plasma, oral, 50 mg, Tmax, mean",1.31 h
same,Tmax,"[1]; human, plasma, oral, 50 mg, Tmax, median",1.12 h
same,AUC(0-t),"[1]; human, plasma, oral, 60 mg, individual patients",1.93 µM·h
same,AUC(0-t),[1]; [12],1.88 µM·h
same,AUC(0-t),[1]; [13],1.88 µM·h
same,Cmax,"[1]; human, plasma, oral, 60 mg, Cmax, individual patients",190 nM
same,Cmax,"[1]; human, plasma, oral, 60 mg, Cmax, mean",190 nM
same,Cmax,"[1]; human, plasma, oral, 60 mg, Cmax, median",190 nM
same,half-life,[1]; [12],19.7 h
same,half-life,[1]; [13],19.7 h
same,AUC(0-t),[1]; [14],1.24 µM·h
same,AUC(0-t),[1]; [15],1.29 µM·h
same,AUC(0-t),[1]; [16],1.27 µM·h
same,Cmax,"[1]; human, plasma, oral, 70 mg, Cmax, individual patients",120 nM
same,Cmax,"[1]; human, plasma, oral, 70 mg, Cmax, mean",120 nM
same,Cmax,"[1]; human, plasma, oral, 70 mg, Cmax, median",120 nM
same,half-life,[1]; [14],18.7 h
same,half-life,[1]; [15],19.4 h
same,half-life,[1]; [16],19.4 h
same,Tmax,"[1]; human, plasma, oral, 70 mg, Tmax, mean",4.25 h
same,Tmax,"[1]; human, plasma, oral, 70 mg, Tmax, median",1.93 h
same,AUClast,[1]; [17],0.41 µM·h and 0.68 µM·h and 0.46 µM·h and 0.32 µM·h and 0.19 µM·h and 0.16 µM·h and 0.14 µM·h
same,CL/F,[1]; [17],6.33 L/h and 3.85 L/h and 5.73 L/h and 8.25 L/h and 11.50 L/h and 13.68 L/h and 16.29 L/h and 18.14 L/h and 15.94 L/h
same,Tmax,[1]; [17],0.93 h and 1.00 h and 1.88 h and 2.05 h and 1.05 h and 3.97 h and 1.92 h and 1.95 h and 2.02 h
same,CL/F,"[1]; dose 2.5 mg, mean",11.08 L/h
same,CL/F,"[1]; dose 2.5 mg, median",11.50 L/h
same,Cmax,"[1]; dose 2.5 mg, median",30 nM
same,Tmax,"[1]; dose 2.5 mg, median",1.92 h
same,AUClast,"[1]; dose 5 mg, individual patients",0.22 µM·h
same,CL/F,"[1]; dose 5 mg, individual patients",9.45 L/h and 23.36 L/h and 10.39 L/h
same,Cmax,"[1]; dose 5 mg, individual patients",45.2 nM and 21.1 nM
same,T1/2,"[1]; dose 5 mg, individual patients",28.35 h and 18.84 h and 12.56 h
same,Tmax,"[1]; dose 5 mg, individual patients",1.95 h and 4.10 h
same,CL/F,"[1]; dose 5 mg, mean",14.40 L/h
same,CL/F,"[1]; dose 5 mg, median",10.39 L/h
same,Cmax,"[1]; dose 5 mg, median",36.2 nM
same,AUClast,[1]; [18],0.49 µM·h and 0.63 µM·h and 1.02 µM·h and 1.48 µM·h
same,CL/F,[1]; [18],21.35 L/h and 16.51 L/h and 10.28 L/h and 7.07 L/h
same,Cmax,[1]; [18],120 nM
same,T1/2,[1]; [18],21.52 h
same,Tmax,[1]; [18],4.03 h and 1.05 h and 3.83 h and 4.00 h
same,CL/F,"[1]; dose 10 mg, mean",13.80 L/h
same,Cmax,"[1]; dose 10 mg, mean",90 nM
same,CL/F,"[1]; dose 10 mg, median",13.40 L/h
same,Cmax,"[1]; dose 10 mg, median",84.6 nM
same,Cmax,"[1]; dose 50 mg, individual patients",130 nM
same,AUClast,[1]; [19],1.87 µM·h and 1.42 µM·h and 1.72 µM·h
same,CL/F,[1]; [19],21.38 L/h and 14.80 L/h and 15.39 L/h and 21.73 L/h and 8.55 L/h
same,Cmax,[1]; [19],130 nM and 160 nM and 170 nM
same,Tmax,[1]; [19],1.87 h and 1.78 h and 0.83 h and 0.95 h
same,CL/F,"[1]; dose 50 mg, mean",16.37 L/h
same,CL/F,"[1]; dose 50 mg, median",15.39 L/h
same,AUClast,[1]; [20],1.83 µM·h
same,CL/F,[1]; [20],23.69 L/h and 16.85 L/h
same,T1/2,[1]; [20],12.25 h and 27.10 h
same,Tmax,[1]; [20],1.00 h
same,CL/F,"[1]; dose 60 mg, mean",20.27 L/h
same,Tmax,"[1]; dose 60 mg, mean",1.00 h
same,CL/F,"[1]; dose 60 mg, median",20.27 L/h
same,Tmax,"[1]; dose 60 mg, median",1.00 h
same,AUClast,[1]; [21],1.36 µM·h
same,CL/F,[1]; [21],35.41 L/h and 33.84 L/h
same,Cmax,[1]; [21],90 nM
same,T1/2,[1]; [21],20.18 h
same,Tmax,[1]; [21],9.75 h and 1.07 h
same,CL/F,"[1]; dose 70 mg, mean",34.62 L/h
same,CL/F,"[1]; dose 70 mg, median",34.62 L/h
same,IC50,[2],2 nM
same,"Stomatitis, No. Patients Affected",[3],1
